# Test results as given in PubChem BioAssay AID2060508 (Molecular Pharmacology Branch, DTP, NCI, 2025).
# Tested on: 454973-116-R2-J3-PDC spheroids, viability, % test/control
# Assay: Anticancer human tumor 454973-116-R2-J3-PDC patient-derived pancreatic carcinoma cell line growth inhibition [GQUAD]
# Settings: spheroids with HUVEC and MSC; for IC50: curve of first compound; for viability, T/C: stronger effect = lower value
# Method in brief: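 Tumor cells were grown as complex spheroids with HUVEC endothelial cells and mesenchymal stem cells as stroma. G-quadruplex stabilizers were combined with targeted agents over half-log dilutions from near the clinical Cmax, or from 10 microM.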
# [1] = second compound 0.0316 µM, first compound 0.0316 µM
# [2] = second compound 0.0316 µM, first compound 0.316 µM
# [3] = second compound 0.1 µM, first compound 0.0316 µM
# [4] = second compound 0.1 µM, first compound 0.316 µM
# [5] = second compound 0.316 µM, first compound 0.0316 µM
# [6] = second compound 0.316 µM, first compound 0.316 µM
# [7] = second compound 1 µM, first compound 0.0316 µM
# [8] = second compound 1 µM, first compound 0.316 µM
# [9] = second compound 3.16 µM, first compound 0.0316 µM
# [10] = second compound 3.16 µM, first compound 0.316 µM
# [11] = second compound 10 µM, first compound 0.0316 µM
# [12] = second compound 10 µM, first compound 0.316 µM
# [13] = second compound 0.0316 µM, first compound 0.1 µM
# [14] = second compound 0.0316 µM, first compound 1 µM
# [15] = second compound 0.0316 µM, first compound 3.16 µM
# [16] = second compound 0.0316 µM, first compound 10 µM
# [17] = second compound 0.1 µM, first compound 0.1 µM
# [18] = second compound 0.1 µM, first compound 1 µM
# [19] = second compound 0.1 µM, first compound 3.16 µM
# [20] = second compound 0.1 µM, first compound 10 µM
# [21] = second compound 0.316 µM, first compound 0.1 µM
# [22] = second compound 0.316 µM, first compound 1 µM
# [23] = second compound 0.316 µM, first compound 3.16 µM
# [24] = second compound 0.316 µM, first compound 10 µM
# [25] = second compound 1 µM, first compound 0.1 µM
# [26] = second compound 1 µM, first compound 1 µM
# [27] = second compound 1 µM, first compound 3.16 µM
# [28] = second compound 1 µM, first compound 10 µM
# [29] = second compound 3.16 µM, first compound 0.1 µM
# [30] = second compound 3.16 µM, first compound 1 µM
# [31] = second compound 3.16 µM, first compound 3.16 µM
# [32] = second compound 3.16 µM, first compound 10 µM
# [33] = second compound 10 µM, first compound 0.1 µM
# [34] = second compound 10 µM, first compound 1 µM
# [35] = second compound 10 µM, first compound 3.16 µM
# [36] = second compound 10 µM, first compound 10 µM
# 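Further: spheroids exposed to compounds for seven days.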
# 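Wherever viability, T/C is given: 100% = DMSO vehicle control viability.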
smiles,measurement,setting,value
CCc1c2c(nc3ccc(O)cc13)-c1cc3c(c(=O)n1C2)COC(=O)[C@]3(O)CC + Cc1cnc(CNC(=O)c2c(=O)c3ccc(N4CCCN(C)CC4)nc3n3c2sc2ccccc23)cn1,IC50,second compound 0.0316 µM,< 0.999 nM
same,IC50,second compound 0.1 µM,< 0.999 nM
same,IC50,second compound 0.316 µM,< 0.999 nM
same,IC50,second compound 1 µM,1.45 nM
same,IC50,second compound 3.16 µM,4.04 nM
same,IC50,second compound 10 µM,< 0.999 nM
same,"viability, T/C","second compound 0.0316 µM, first compound 0.000999 µM",45.7%
same,"viability, T/C","second compound 0.0316 µM, first compound 0.00316 µM",24.6%
same,"viability, T/C","second compound 0.0316 µM, first compound 0.00999 µM",22.9%
same,"viability, T/C",[1],12.3%
same,"viability, T/C","second compound 0.0316 µM, first compound 0.0999 µM",7.38%
same,"viability, T/C",[2],4.15%
same,"viability, T/C","second compound 0.1 µM, first compound 0.000999 µM",36.2%
same,"viability, T/C","second compound 0.1 µM, first compound 0.00316 µM",24.1%
same,"viability, T/C","second compound 0.1 µM, first compound 0.00999 µM",22.9%
same,"viability, T/C",[3],14.8%
same,"viability, T/C","second compound 0.1 µM, first compound 0.0999 µM",7.21%
same,"viability, T/C",[4],4.8%
same,"viability, T/C","second compound 0.316 µM, first compound 0.000999 µM",37.7%
same,"viability, T/C","second compound 0.316 µM, first compound 0.00316 µM",34.2%
same,"viability, T/C","second compound 0.316 µM, first compound 0.00999 µM",33.7%
same,"viability, T/C",[5],15.9%
same,"viability, T/C","second compound 0.316 µM, first compound 0.0999 µM",7.83%
same,"viability, T/C",[6],4.86%
same,"viability, T/C","second compound 1 µM, first compound 0.000999 µM",47.1%
same,"viability, T/C","second compound 1 µM, first compound 0.00316 µM",54.1%
same,"viability, T/C","second compound 1 µM, first compound 0.00999 µM",36.5%
same,"viability, T/C",[7],22.2%
same,"viability, T/C","second compound 1 µM, first compound 0.0999 µM",7.17%
same,"viability, T/C",[8],2.75%
same,"viability, T/C","second compound 3.16 µM, first compound 0.000999 µM",59.7%
same,"viability, T/C","second compound 3.16 µM, first compound 0.00316 µM",51.9%
same,"viability, T/C","second compound 3.16 µM, first compound 0.00999 µM",40%
same,"viability, T/C",[9],26.1%
same,"viability, T/C","second compound 3.16 µM, first compound 0.0999 µM",7.65%
same,"viability, T/C",[10],0.55%
same,"viability, T/C","second compound 10 µM, first compound 0.000999 µM",16.4%
same,"viability, T/C","second compound 10 µM, first compound 0.00316 µM",16.7%
same,"viability, T/C","second compound 10 µM, first compound 0.00999 µM",38.7%
same,"viability, T/C",[11],0.26%
same,"viability, T/C","second compound 10 µM, first compound 0.0999 µM",0.24%
same,"viability, T/C",[12],0.7%
CC1COCCN1c1cc(C2(S(C)(=N)=O)CC2)nc(-c2ccnc3[nH]ccc23)n1 (stereo unspecified) + Cc1cnc(CNC(=O)c2c(=O)c3ccc(N4CCCN(C)CC4)nc3n3c2sc2ccccc23)cn1,IC50,second compound 0.0316 µM,2560 nM
same,IC50,second compound 0.1 µM,1420 nM
same,IC50,second compound 0.316 µM,957 nM
same,IC50,second compound 1 µM,1470 nM
same,IC50,second compound 3.16 µM,1060 nM
same,IC50,second compound 10 µM,< 31.6 nM
same,"viability, T/C",[1],104%
same,"viability, T/C",[13],95.5%
same,"viability, T/C",[2],96.6%
same,"viability, T/C",[14],79.2%
same,"viability, T/C",[15],43.2%
same,"viability, T/C",[16],21.6%
same,"viability, T/C",[3],90.9%
same,"viability, T/C",[17],81.9%
same,"viability, T/C",[4],74.2%
same,"viability, T/C",[18],58.9%
same,"viability, T/C",[19],33%
same,"viability, T/C",[20],23.5%
same,"viability, T/C",[5],70.8%
same,"viability, T/C",[21],73%
same,"viability, T/C",[6],64.6%
same,"viability, T/C",[22],50.5%
same,"viability, T/C",[23],30.3%
same,"viability, T/C",[24],27.8%
same,"viability, T/C",[7],62.9%
same,"viability, T/C",[25],67.2%
same,"viability, T/C",[8],70%
same,"viability, T/C",[26],56.6%
same,"viability, T/C",[27],36.1%
same,"viability, T/C",[28],38%
same,"viability, T/C",[9],65.9%
same,"viability, T/C",[29],66.1%
same,"viability, T/C",[10],59.4%
same,"viability, T/C",[30],46.9%
same,"viability, T/C",[31],42%
same,"viability, T/C",[32],38.4%
same,"viability, T/C",[11],0.26%
same,"viability, T/C",[33],0.49%
same,"viability, T/C",[12],0.34%
same,"viability, T/C",[34],0.88%
same,"viability, T/C",[35],0.61%
same,"viability, T/C",[36],0.35%
COc1cccc2c1C(=O)c1c(O)c3c(c(O)c1C2=O)CC(O)(C(=O)CO)CC3OC1CC(N)C(O)C(C)O1 (stereo unspecified) + Cc1cnc(CNC(=O)c2c(=O)c3ccc(N4CCCN(C)CC4)nc3n3c2sc2ccccc23)cn1,IC50,second compound 0.0316 µM,166 nM
same,IC50,second compound 0.1 µM,184 nM
same,IC50,second compound 0.316 µM,418 nM
same,IC50,second compound 1 µM,746 nM
same,IC50,second compound 3.16 µM,763 nM
same,IC50,second compound 10 µM,< 31.6 nM
same,"viability, T/C",[1],92.9%
same,"viability, T/C",[13],52.9%
same,"viability, T/C",[2],37.9%
same,"viability, T/C",[14],28.8%
same,"viability, T/C",[15],12.9%
same,"viability, T/C",[16],0.39%
same,"viability, T/C",[3],74.5%
same,"viability, T/C",[17],45.4%
same,"viability, T/C",[4],43.4%
same,"viability, T/C",[18],41%
same,"viability, T/C",[19],13.4%
same,"viability, T/C",[20],0.51%
same,"viability, T/C",[5],66.4%
same,"viability, T/C",[21],52.3%
same,"viability, T/C",[6],49.3%
same,"viability, T/C",[22],44%
same,"viability, T/C",[23],12%
same,"viability, T/C",[24],0.51%
same,"viability, T/C",[7],62.4%
same,"viability, T/C",[25],54.9%
same,"viability, T/C",[8],62.8%
same,"viability, T/C",[26],46.2%
same,"viability, T/C",[27],12.3%
same,"viability, T/C",[28],0.26%
same,"viability, T/C",[9],68%
same,"viability, T/C",[29],69.2%
same,"viability, T/C",[10],63.3%
same,"viability, T/C",[30],46%
same,"viability, T/C",[31],11%
same,"viability, T/C",[32],0.67%
same,"viability, T/C",[11],15.2%
same,"viability, T/C",[33],20%
same,"viability, T/C",[12],43.8%
same,"viability, T/C",[34],27.7%
same,"viability, T/C",[35],0.35%
same,"viability, T/C",[36],0.21%
